Results published in article PMC6331910, “The Curcumin Analogue 1,5-Bis(2-hydroxyphenyl)-1,4-pentadiene-3-one Induces Apoptosis and Downregulates E6 and E7 Oncogene Expression in HPV16 and HPV18-Infected Cervical Cancer Cells” (Molecules, 2015).

Test system: CaSki
Assay: DNA fragmentation, Cell Death Detection ELISA (cytoplasmic nucleosomal enrichment)
Format: cell-based, human
Procedure: HeLa, 9 μM] at various time points. Each experiment included a set of untreated control cells (Media with DMSO alone). The enrichment of the cytoplasm of treated cells by mono- and oligonucleosomes are used to study whether enhanced DNA fragmentation is induced by diarylpentanoid treatment. This determination was made following the manufacturer’s instructions of the Cell Death Detection ELISA^PLUS kit (Roche Diagnostics, Mannheim, Germany). […] Following treatment, the cells were incubated in lysis buffer and centrifuged, after which the supernatant was transferred to streptavidin coated plates and shaken with the provided immunoreagent (mixture of anti-DNA-POD and anti-histone biotin) for 2 h. […] Enrichment factor, defined as the release of mono- and oligonucleosomes into the cytoplasm, was calculated using the formula below: (4) Enrichment factor =Absorbance of Test − Absorbance of Blank (substrate only)/Absorbance of Control − Absorbance of Blank (substrate only)

O=C(C=Cc1ccccc1O)C=Cc1ccccc1O [MS17, 1,5-bis(2-hydroxyphenyl)-1,4-pentadiene-3-one]
increase in nucleosome enrichment (4 μM, 24 h, vs untreated): 5 fold
enrichment factor (48 h): no significant difference between doses
enrichment factor (72 h): no significant reduction
